Paper PMC9774391 (ACS Omega, 2022)

Assays:
[1] = molecular target: T1, MAO-B (Homo sapiens, UniProt P27338); assay: In vitro MAO-B inhibition assay (fluorometric); type: biochemical; settings: for inhibition at 1000 µM: 10^–3 M; for inhibition at 100 µM: 10^–4 M; for inhibition at 10 µM: 10^–5 M; for inhibition at 1 µM: 10^–6 M; for inhibition at 0.1 µM: 10^–7 M; for inhibition at 0.01 µM: 10^–8 M; for inhibition at 0.001 µM: 10^–9 M
T1 sequence (P27338 1-520): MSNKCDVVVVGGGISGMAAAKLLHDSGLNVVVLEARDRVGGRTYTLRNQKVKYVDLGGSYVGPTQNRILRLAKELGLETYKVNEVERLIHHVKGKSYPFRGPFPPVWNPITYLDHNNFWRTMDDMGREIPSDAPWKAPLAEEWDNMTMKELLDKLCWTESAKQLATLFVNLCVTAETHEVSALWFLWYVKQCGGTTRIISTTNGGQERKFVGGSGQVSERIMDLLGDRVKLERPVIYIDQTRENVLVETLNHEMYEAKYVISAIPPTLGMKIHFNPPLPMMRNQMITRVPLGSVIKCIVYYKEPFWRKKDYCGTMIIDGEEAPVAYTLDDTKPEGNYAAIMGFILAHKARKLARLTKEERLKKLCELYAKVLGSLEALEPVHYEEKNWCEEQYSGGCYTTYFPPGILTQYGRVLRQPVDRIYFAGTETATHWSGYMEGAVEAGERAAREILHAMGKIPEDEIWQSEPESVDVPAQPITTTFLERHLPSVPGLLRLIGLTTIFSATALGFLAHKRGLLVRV

[2] = molecular target: T2, MAO-A (Homo sapiens, UniProt P21397); assay: In vitro MAO-A inhibition assay (fluorometric); type: biochemical; settings: for inhibition at 1000 µM: 10^–3 M; for inhibition at 100 µM: 10^–4 M
T2 sequence (P21397 1-527): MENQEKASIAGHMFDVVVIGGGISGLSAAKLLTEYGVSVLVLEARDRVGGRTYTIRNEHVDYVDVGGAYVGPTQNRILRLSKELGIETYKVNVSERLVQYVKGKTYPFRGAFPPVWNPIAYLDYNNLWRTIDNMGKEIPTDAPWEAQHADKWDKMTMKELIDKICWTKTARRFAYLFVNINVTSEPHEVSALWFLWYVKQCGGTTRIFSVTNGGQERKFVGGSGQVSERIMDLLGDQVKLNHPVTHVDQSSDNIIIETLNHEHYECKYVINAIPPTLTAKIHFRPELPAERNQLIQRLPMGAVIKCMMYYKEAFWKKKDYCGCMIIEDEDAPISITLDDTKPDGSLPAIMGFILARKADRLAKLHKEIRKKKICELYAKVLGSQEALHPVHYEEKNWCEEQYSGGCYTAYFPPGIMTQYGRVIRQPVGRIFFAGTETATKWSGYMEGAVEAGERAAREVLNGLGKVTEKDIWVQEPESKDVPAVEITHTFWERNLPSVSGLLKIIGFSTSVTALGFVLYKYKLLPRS

[3] = molecular target: T3, AChE (Homo sapiens, UniProt P22303); assay: Enzyme kinetics on AChE (Lineweaver–Burk); type: biochemical
T3 sequence (P22303 32-614): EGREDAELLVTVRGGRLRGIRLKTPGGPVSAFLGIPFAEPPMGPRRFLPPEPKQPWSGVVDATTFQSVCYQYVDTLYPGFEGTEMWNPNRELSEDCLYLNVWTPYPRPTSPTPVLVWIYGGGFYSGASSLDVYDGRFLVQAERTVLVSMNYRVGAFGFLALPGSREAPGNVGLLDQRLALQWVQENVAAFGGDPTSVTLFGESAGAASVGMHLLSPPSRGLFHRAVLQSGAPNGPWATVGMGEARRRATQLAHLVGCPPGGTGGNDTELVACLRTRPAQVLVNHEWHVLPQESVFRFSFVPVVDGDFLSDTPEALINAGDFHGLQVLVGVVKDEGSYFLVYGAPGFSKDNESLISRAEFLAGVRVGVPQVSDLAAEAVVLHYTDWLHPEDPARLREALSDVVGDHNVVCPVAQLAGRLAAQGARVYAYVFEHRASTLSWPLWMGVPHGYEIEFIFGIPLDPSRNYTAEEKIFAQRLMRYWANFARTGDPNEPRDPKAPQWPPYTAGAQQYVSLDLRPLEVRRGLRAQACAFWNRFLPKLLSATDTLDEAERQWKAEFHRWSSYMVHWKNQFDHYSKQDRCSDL
Protocol: The experimental procedures used in the kinetic investigations were identical to those used in the inhibition experiments. […]. Acetylthiocholine iodide (ATC) and butyrylthiocholine iodide (BTC) solutions were utilized as the substrates for the ChE enzymes, with serial dilutions at six different concentrations (600, 300, 150, 75, 37.5, and 18.75 μM). The tyramine substrate solution (concentrations ranging from 20 to 0.625 μM) was produced for the MAO enzymes at six different concentrations. Separate measurements were conducted both with and without an inhibitor. Using the Microsoft Office Excel 2013 program, the resulting absorbance values were compared to various substrate concentrations, and Lineweaver–Burk plots were created.[19]−[22]
The absorbance data from the experiments and the substrate concentrations were used to generate Lineweaver–Burk plots. The graphic’s x-axis stands for 1/[S] […] […]. The intersection of these four lines on the diagram was used to define the type of substrate and inhibitor reaction against the enzyme.
Reversible and irreversible inhibition of enzymes are the two categories that inhibition is commonly subdivided into. In irreversible inhibition, the inhibitor either creates a recalcitrant complex structure or establishes a covalent bond with the enzyme. […]

[4] = DPPH free-radical scavenging activity assay; settings: serial dilution 10^–3–10^–9 M; read-out: IC50 on DPPH antioxidant activity
Protocol: This approach is based on evaluating the free-radical scavenging abilities of the stable 1,1-diphenyl-2-picrylhydrazyl (DPPH) radical. To create the DPHH solution, 9.86 mg of DPPH was weighed and diluted to 25 mL with methanol. The test wells were then filled with 100 μL of the DPPH solution and 100 μL of the test solutions. Only 200 μL of methanol was used for the blank reading, while the control reading required the usage of 100 μL each of methanol and the DPPH solution. Following incubation, a spectrophotometric measurement at 517 nm was carried out.[26],[27]

[5] = Cytotoxicity test (MTT); type: cell-based; settings: NIH/3T3 mouse embryonic fibroblast cells (ATCC CRL-1658), NIH/3T3 mouse fibroblast healthy cell line
Protocol: The NIH/3T3 cells were incubated according to the manufacturer’s recommendations. In 96-well plates, NIH/3T3 cells were seeded at a density of 1 × 10^4 cells per well. The MTT test was conducted in line with the previously mentioned standards.[19],[22],[23],[28],[30]

[6] = molecular target: T4, Beta Amyloid 1–42 (Aβ42) (Homo sapiens, UniProt P05067); assay: Beta Amyloid 1–42 (Aβ42) inhibitor screening assay; type: biochemical; settings: for inhibition at 1000 µM: 10^–3 M; for inhibition at 1000 µM / inhibition at 100 µM: read-out: % β-amyloid plaque inhibition; for inhibition at 100 µM: 10^–4 M; for IC50: read-out: IC50 on β-amyloid plaque aggregation
T4 construct: The Beta Amyloid 1–42 (Aβ42) Ligand Screening Assay kit; purchased BioVision, Milpitas, CA
T4 sequence (P05067 672-713 limits assumed): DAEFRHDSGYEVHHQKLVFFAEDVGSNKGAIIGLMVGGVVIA
Text: The Beta Amyloid 1–42 (Aβ42) Ligand Screening Assay kit (BioVision, Milpitas, CA) technique based on the fluorometric approach served as the basis for the experimental process.[21],[28],[29]

[7] = molecular target: BChE (Homo sapiens, UniProt P06276); assay: biochemical; settings: for inhibition at 1000 µM: 10^–3 M; for inhibition at 100 µM: 10^–4 M
BChE, sequence (P06276 29-602): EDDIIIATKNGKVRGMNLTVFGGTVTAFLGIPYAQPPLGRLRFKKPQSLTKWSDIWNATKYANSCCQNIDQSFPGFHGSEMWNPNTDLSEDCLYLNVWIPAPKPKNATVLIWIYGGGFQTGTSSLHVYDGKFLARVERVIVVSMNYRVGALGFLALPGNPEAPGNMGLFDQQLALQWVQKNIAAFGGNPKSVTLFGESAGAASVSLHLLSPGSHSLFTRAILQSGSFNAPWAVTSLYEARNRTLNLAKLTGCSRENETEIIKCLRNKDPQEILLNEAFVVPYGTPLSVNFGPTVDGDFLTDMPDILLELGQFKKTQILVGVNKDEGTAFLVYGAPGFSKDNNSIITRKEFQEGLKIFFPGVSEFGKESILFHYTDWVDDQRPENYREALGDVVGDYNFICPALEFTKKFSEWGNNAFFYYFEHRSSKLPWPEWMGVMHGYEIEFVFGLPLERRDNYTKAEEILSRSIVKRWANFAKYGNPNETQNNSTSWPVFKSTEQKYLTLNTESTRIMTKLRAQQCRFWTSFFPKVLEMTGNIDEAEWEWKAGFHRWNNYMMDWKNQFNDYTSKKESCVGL
Protocol: (§1) According to the modified Ellman approach outlined in our team’s earlier work, the AChE and BChE inhibitory activities of the obtained compounds were evaluated.[18]−[21]

[8] = molecular target: T3, AChE; assay: biochemical; settings: for inhibition at 1000 µM: 10^–3 M; for inhibition at 100 µM: 10^–4 M; for inhibition at 10 µM: 10^–5 M; for inhibition at 1 µM: 10^–6 M; for inhibition at 0.1 µM: 10^–7 M; for inhibition at 0.01 µM: 10^–8 M; for inhibition at 0.001 µM: 10^–9 M
Protocol: as §1

| SMILES | IC50 [1] [µM] | inhibition at 1000 µM [1] [%] | inhibition at 100 µM [1] [%] | inhibition at 10 µM [1] [%] | inhibition at 1 µM [1] [%] | inhibition at 0.1 µM [1] [%] | inhibition at 0.01 µM [1] [%] | inhibition at 1000 µM [2] [%] | IC50 [4] [µM] | IC50 [5] [µM] | inhibition at 1000 µM [7] [%] | inhibition at 100 µM [7] [%] | IC50 [8] [µM] | inhibition at 1000 µM [8] [%] | inhibition at 100 µM [8] [%] | inhibition at 10 µM [8] [%] | inhibition at 1 µM [8] [%] | inhibition at 0.1 µM [8] [%] | inhibition at 0.01 µM [8] [%] | inhibition at 0.001 µM [8] [%] | other results |
| --- | --- | --- | --- | --- | --- | --- | --- | --- | --- | --- | --- | --- | --- | --- | --- | --- | --- | --- | --- | --- | --- |
| CCCN(C)CC(=O)Nc1ccc(/C=C2\Cc3ccc(OC)cc3C2=O)cc1 [D29] | 0.0412 ± 0.0018 | 91.8 ± 1.37 | 87.6 ± 1.25 | 82.2 ± 1.21 | 74.2 ± 1.3 | 66 ± 1.84 | 40.3 ± 0.745 | ≥ 90 | 0.188 ± 0.008 | 73.6 ± 1.76 | 61.1 ± 0.99 | 26.914 ± 0.019 | 0.0224 ± 0.0008 | 97.2 ± 1.32 | 94.3 ± 1.46 | 91.8 ± 1.21 | 88.3 ± 1.02 | 75.6 ± 0.974 | 34.3 ± 0.857 | 20.1 ± 0.357 | inhibition at 0.001 µM [1]: 20.4 ± 0.628%; IC50 [2]: 0.112 ± 0.0042 µM; inhibition at 10 µM ([2]; 10^–5 M): 77.4 ± 1.13%; inhibition at 1 µM ([2]; 10^–6 M): 67.3 ± 1.08%; inhibition at 0.1 µM ([2]; 10^–7 M): 49.4 ± 0.567%; inhibition at 0.01 µM ([2]; 10^–8 M): 34 ± 0.422%; inhibition at 0.001 µM ([2]; 10^–9 M): 24.6 ± 0.328%; fold stronger MAO-A inhibition compared to moclobemide ([2]; ratio of IC50 values): 50 ×; type of inhibition of AChE ([3]; Lineweaver–Burk plots): mixed inhibition; Ki ([3]; secondary plot of Lineweaver–Burk data, read-out: steady-state inhibition constant (Ki), AChE): 0.0185 µM; inhibition at 1000 µM [6]: 80.3 ± 2.05%; inhibition at 100 µM [6]: 71.9 ± 1.88%; IC50 [6]: 0.123 ± 0.0049 µM |
| CCCN(C)CC(=O)Nc1ccc(/C=C2\Cc3cc(OC)c(OC)cc3C2=O)cc1 [D30] | 0.0456 ± 0.0017 | 97.5 ± 1.39 | 90.2 ± 1.47 | 82.5 ± 1.38 | 74.6 ± 1.29 | 66 ± 0.966 | 38.1 ± 0.458 | 74.1 ± 2.09 | 0.246 ± 0.011 | 0.601 ± 0.0145 | 99.6 ± 2.02 | 46.43 ± 0.408 | 0.0257 ± 0.0009 | 98.2 ± 1.37 | 96.6 ± 1.28 | 91.8 ± 1.21 | 88.3 ± 1.1 | 74.3 ± 1.05 | 36.6 ± 0.627 | 16.4 ± 0.421 | inhibition at 0.001 µM [1]: 19.8 ± 0.632%; inhibition at 100 µM [2]: 28.3 ± 1.08%; inhibition at 1000 µM [6]: 89.6 ± 1.86%; inhibition at 100 µM [6]: 81.5 ± 1.96%; IC50 [6]: 0.178 ± 0.0074 µM |
| COc1cc2c(cc1OC)C(=O)/C(=C/c1ccc(NC(=O)CN(C)CCN(C)C)cc1)C2 [D36] |  | 84.6 ± 1.01 | 45.2 ± 0.584 |  |  |  |  | 82.4 ± 0.873 | 0.251 ± 0.01 | 3.62 ± 0.129 | 100 ± 1.25 | 41 ± 0.608 | 0.235 ± 0.0113 | 91.9 ± 1.47 | 86.6 ± 1.57 | 78.6 ± 1.03 | 58.8 ± 0.893 | 38.2 ± 0.539 | 33.1 ± 0.491 | 20.6 ± 0.374 | inhibition at 100 µM [2]: 43 ± 0.771% |
| COc1ccc2c(c1)C(=O)/C(=C/c1ccc(NC(=O)CN(C)CCCN(C)C)cc1)C2 [D38] | 0.0359 ± 0.0013 | 94.8 ± 1.43 | 88.6 ± 1.38 | 84.6 ± 1.58 | 78.2 ± 1.41 | 62.5 ± 0.925 | 42.3 ± 0.623 | 95 ± 2.39 | 0.19 ± 0.0078 | 6.81 ± 0.118 | 93.3 ± 1.37 | 90.6 ± 1.3 | 0.0473 ± 0.0016 | 93.2 ± 1.72 | 90.5 ± 1.3 | 81.6 ± 1.17 | 74 ± 0.956 | 68.2 ± 0.862 | 37.2 ± 0.562 | 19.7 ± 0.711 | inhibition at 0.001 µM [1]: 20.7 ± 0.318%; inhibition at 100 µM [2]: 24.1 ± 0.853%; inhibition at 100 µM [6]: > 50%; IC50 [7]: 0.0782 ± 0.0029 µM; inhibition at 10 µM ([7]; 10^–5 M): 85.4 ± 1.3%; inhibition at 1 µM ([7]; 10^–6 M): 78.6 ± 1.11%; inhibition at 0.1 µM ([7]; 10^–7 M): 58.7 ± 0.952%; inhibition at 0.01 µM ([7]; 10^–8 M): 28.8 ± 0.714%; inhibition at 0.001 µM ([7]; 10^–9 M): 18.4 ± 0.633% |
